By half-life is commonly meant the time in which the quantity being followed falls by half. High values mean slow decline, low ones rapid decline.

Data on eight compounds can be found in patent US20260217767A1, “NOVEL A4B7 THIOETHER PEPTIDE DIMER ANTAGONISTS” (Protagonist Therapeutics, Inc., priority 2014, published 2026).

Each structure is given as a SMILES string. pIC50: −log10 of the molar value. Where a SMILES comes first, the peptide text is derived from it.

The nature of data set [1]: Simulated Intestinal Fluid (SIF) Stability Assay. It is filed as in vitro ADME. The settings on record: simulated gi fluid, porcine pancreatin, 37° C.; monomers, Table 6. As for the experimental part:
Simulated Intestinal Fluid (SIF) Stability Assay
Studies were carried out in simulated intestinal fluid (SIF) to evaluate intestinal stability of the peptide molecules of the instant invention. To prepare the SIF reagent, blank FASSIF was prepared by dissolving 0.348 g NaOH, 3.954 g sodium phosphate monobasic monohydrate and 6.186 g NaCl in a final volume of 1 liter water (final pH=6.5). To this solution, 24 g porcine pancreatin (Sigma catalog P7545) was added and stirred for 30 minutes (final pancreatin concentration is 2.4%). The solution was filtered through a cheese cloth and a No. 1 Whatman filter, and 10 ml aliquots were stored at −70° C. To run the reaction, a 10 ml aliquot was thawed at 37° C., and 125 μl aliquots were removed and mixed with an equal volume of blank FASSIF. The peptide stock solution (10 mM in 100% DMSO) was diluted 75-fold in blank FASSIF. A 50 μl aliquot of the diluted peptide was combined with 125 μl pancreatin (2.4%) and 125 μl blank FASSIF to yield final concentrations of 1% pancreatin and 22 μM peptide. The reactions were incubated at 37° C., and at various time points 50 μl aliquots were removed and added to 200 μl of quench solution containing 50% acetonitrile, 50% methanol, 5% formic acid, and 1 μg/ml internal standard. The quenched samples were centrifuged at 10,000 rpm for 10 minutes, and the supernatants were analyzed by LCMS/MS. The percent remaining at each time point was calculated based on the peak area response ratio of test to compound to internal standard. Half-lives were calculated by fitting to a first-order exponential decay equation using GraphPad. A small sampling of the results of these studies is provided and discussed herein and in the accompanying figures.

The target in data set [2] is T1, RPMI 8866 cells (Homo sapiens, UniProt P13612+P26010).
T1 sequence (P13612 34-1032): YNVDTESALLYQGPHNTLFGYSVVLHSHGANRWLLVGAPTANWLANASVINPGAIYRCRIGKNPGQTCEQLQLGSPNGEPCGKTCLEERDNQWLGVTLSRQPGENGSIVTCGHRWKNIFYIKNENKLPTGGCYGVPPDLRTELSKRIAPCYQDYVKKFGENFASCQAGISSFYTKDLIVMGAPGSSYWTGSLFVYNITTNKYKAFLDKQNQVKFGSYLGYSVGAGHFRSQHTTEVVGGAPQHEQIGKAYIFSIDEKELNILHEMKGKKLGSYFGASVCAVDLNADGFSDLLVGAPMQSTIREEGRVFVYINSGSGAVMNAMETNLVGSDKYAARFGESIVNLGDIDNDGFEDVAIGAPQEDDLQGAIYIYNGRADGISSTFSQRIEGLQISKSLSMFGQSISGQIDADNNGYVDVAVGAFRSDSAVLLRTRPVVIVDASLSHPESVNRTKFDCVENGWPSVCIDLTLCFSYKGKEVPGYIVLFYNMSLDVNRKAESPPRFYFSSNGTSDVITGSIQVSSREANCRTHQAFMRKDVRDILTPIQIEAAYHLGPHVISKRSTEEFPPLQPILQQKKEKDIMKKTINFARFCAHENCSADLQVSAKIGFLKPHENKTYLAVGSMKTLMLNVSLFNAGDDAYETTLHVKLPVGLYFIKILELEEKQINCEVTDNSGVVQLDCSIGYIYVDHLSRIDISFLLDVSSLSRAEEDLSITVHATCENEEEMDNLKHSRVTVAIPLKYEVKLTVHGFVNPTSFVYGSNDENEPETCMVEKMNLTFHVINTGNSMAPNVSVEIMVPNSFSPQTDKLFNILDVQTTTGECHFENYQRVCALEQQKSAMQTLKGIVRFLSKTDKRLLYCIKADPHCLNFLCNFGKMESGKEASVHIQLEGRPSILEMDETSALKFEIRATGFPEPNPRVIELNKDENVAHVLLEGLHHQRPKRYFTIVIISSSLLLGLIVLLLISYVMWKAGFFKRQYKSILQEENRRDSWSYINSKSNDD
T1 sequence (P26010 20-798): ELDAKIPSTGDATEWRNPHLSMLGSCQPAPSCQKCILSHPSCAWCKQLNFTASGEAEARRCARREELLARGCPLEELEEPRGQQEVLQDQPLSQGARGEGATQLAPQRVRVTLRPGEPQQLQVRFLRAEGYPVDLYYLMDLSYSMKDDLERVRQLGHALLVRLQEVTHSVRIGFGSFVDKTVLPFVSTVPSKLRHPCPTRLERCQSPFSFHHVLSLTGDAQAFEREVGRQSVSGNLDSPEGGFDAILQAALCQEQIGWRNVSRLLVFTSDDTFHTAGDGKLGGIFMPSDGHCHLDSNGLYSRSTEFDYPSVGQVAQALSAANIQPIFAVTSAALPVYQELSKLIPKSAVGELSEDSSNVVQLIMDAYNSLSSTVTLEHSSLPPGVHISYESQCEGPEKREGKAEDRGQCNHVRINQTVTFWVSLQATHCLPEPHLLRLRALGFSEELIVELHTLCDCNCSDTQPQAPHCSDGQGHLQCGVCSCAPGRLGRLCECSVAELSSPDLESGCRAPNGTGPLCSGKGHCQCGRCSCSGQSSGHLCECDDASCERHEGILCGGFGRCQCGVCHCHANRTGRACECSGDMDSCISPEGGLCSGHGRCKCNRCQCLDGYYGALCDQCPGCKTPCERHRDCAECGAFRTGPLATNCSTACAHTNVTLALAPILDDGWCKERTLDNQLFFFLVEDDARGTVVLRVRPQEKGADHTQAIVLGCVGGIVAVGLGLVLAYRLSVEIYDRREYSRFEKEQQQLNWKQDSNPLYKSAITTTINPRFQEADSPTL
Kind of data set: α4β7-MAdCAM Cell Adhesion Assay. It is filed as cell-based. The settings on record: thioether peptide dimers, Table 7; read-out: Cell-Adhesion A4B7. The method, then: α4β7-MAdCAM Cell Adhesion Assay
RPMI 8866 cells (Sigma #95041316) were cultured in RPMI 1640 HEPES medium (Invitrogen #22400-089) supplemented with 10% serum (Fetal Bovine Serum, Invitrogen #16140-071), 1 mM sodium pyruvate (Invitrogen #11360-070), 2 mM L-glutamine (Invitrogen #25030-081) and Penicillin-Streptomycin (Invitrogen #15140-122) at 100 units of penicillin and 100 μg of streptomycin per ml. The cells were washed two times in DMEM medium (ATCC #30-2002) supplemented with 0.1% BSA, 10 mM HEPES pH 7 and 1 mM MnCl2. The cells were re-suspended in supplemented DMEM medium at a density of 4×10^6 cells/ml.
A Nunc MaxiSorp plate was coated with rh MAdCAM-1/Fc Chimera (R&D #6065-MC) at 200 ng per well in 50 ul per well in 1×PBS and incubated at 4° C. overnight. The solution was then removed by shaking, blocked with 250 ul per well PBS containing 1% BSA, and incubated at 37° C. for 1 hr. The solution was removed by shaking. Peptides were diluted by serial dilution in a final volume of 50 ul per well (2× concentration). To each well, 50 ul of cells (200,000 cells) were added and the plate was incubated at 37° C., 5% CO2 for 30-45 min to allow cell adhesion. The wells were washed manually three times (100 ul per wash) with supplemented DMEM. After the final wash, 100 μl/well of supplemented DMEM and 10 ul/well of MTT reagent (ATTC cat #30-1010K) were added. The plate was incubated at 37° C., 5% CO2 for 2-3 hrs until a purple precipitate is visible. 100 ul of Detergent Reagent (ATTC cat #30-1010K) was added to each well. The plate was covered from the light, wrapped in Parafilm to prevent evaporation, and left overnight at room temperature in the dark. The plate was shaken for 5 min and the absorbance at 570 nm is measured. To calculate the dose response, the absorbance value of control wells not containing cells was subtracted from each test well.

Take `CC(C)C[C@@H]1NC(=O)[C@H]([C@@H](C)O)NC(=O)[C@H](CC(=O)O)NC(=O)[C@H](CO)NC(=O)[C@H](CCCNC(=N)N)N(C)C(=O)c2ccccc2CSC(C)(C)[C@@H](C(=O)N[C@@H](Cc2c[nH]c3ccccc23)C(=O)N[C@@H](CCC(=O)O)C(=O)N[C@H](CCCCN)C(N)=O)NC1=O` [compound 56] (HELM PEPTIDE1{[meR].S.D.T.L.[Pen].W.E.[dK].[am]}|CHEM1{[O=C(c1ccccc1C[*:2])[*:1]]}$PEPTIDE1,CHEM1,1:R1-1:R1|PEPTIDE1,CHEM1,6:R3-1:R2$$$V2.0): the half-life in data set [1] is 3.1 h.

As for `CC(C)C[C@@H]1NC(=O)[C@H]([C@@H](C)O)NC(=O)[C@H](CC(=O)O)NC(=O)[C@H](CO)NC(=O)[C@H](CCCNC(=N)N)N(C)C(=O)c2ccccc2CSC(C)(C)[C@@H](C(=O)N[C@@H](Cc2c[nH]c3ccccc23)C(=O)N[C@H](CCC(=O)O)C(=O)N[C@H](Cc2ccc(O)cc2)C(=O)N[C@H](CCCCN)C(N)=O)NC1=O` [compound 201] (HELM PEPTIDE1{[meR].S.D.T.L.[Pen].W.[dE].[dY].[dK].[am]}|CHEM1{[O=C(c1ccccc1C[*:2])[*:1]]}$PEPTIDE1,CHEM1,1:R1-1:R1|PEPTIDE1,CHEM1,6:R3-1:R2$$$V2.0), the pIC50 in data set [2] is more than 7.60.

For the compound `CC(C)C[C@@H]1NC(=O)[C@H]([C@@H](C)O)NC(=O)[C@H](CC(=O)O)NC(=O)[C@H](CO)NC(=O)[C@H](CCCNC(=N)N)N(C)C(=O)c2ccccc2CSC(C)(C)[C@@H](C(=O)N[C@@H](Cc2c[nH]c3ccccc23)C(=O)N[C@@H](Cc2ccc(-c3ccccc3)cc2)C(=O)N[C@H](CCCCN)C(N)=O)NC1=O` [compound 202] (HELM PEPTIDE1{[meR].S.D.T.L.[Pen].W.[O=C([C@H](Cc1ccc(-c2ccccc2)cc1)N[*:1])[*:2]].[dK].[am]}|CHEM1{[O=C(c1ccccc1C[*:2])[*:1]]}$PEPTIDE1,CHEM1,1:R1-1:R1|PEPTIDE1,CHEM1,6:R3-1:R2$$$V2.0), the pIC50 in data set [2] was 6.00 to 7.00.

As to `CC(C)C[C@@H]1NC(=O)[C@H]([C@@H](C)O)NC(=O)[C@H](CC(=O)O)NC(=O)[C@H](CO)NC(=O)[C@H](CCCNC(=N)N)N(C)C(=O)c2ccccc2CSC(C)(C)[C@@H](C(=O)N[C@@H](Cc2ccccc2)C(=O)N[C@@H](Cc2ccc(-c3ccccc3)cc2)C(=O)N[C@H](CCCCN)C(N)=O)NC1=O` [compound 203] (HELM PEPTIDE1{[meR].S.D.T.L.[Pen].F.[O=C([C@H](Cc1ccc(-c2ccccc2)cc1)N[*:1])[*:2]].[dK].[am]}|CHEM1{[O=C(c1ccccc1C[*:2])[*:1]]}$PEPTIDE1,CHEM1,1:R1-1:R1|PEPTIDE1,CHEM1,6:R3-1:R2$$$V2.0), the pIC50 in data set [2] is 6.00 to 7.00.

For `CC(C)C[C@@H]1NC(=O)[C@H]([C@@H](C)O)NC(=O)[C@H](CC(=O)O)NC(=O)[C@H](CO)NC(=O)[C@H](CCCNC(=N)N)N(C)C(=O)c2ccccc2CSC[C@@H](C(=O)N2Cc3ccccc3C[C@H]2C(=O)N[C@@H](Cc2ccc(-c3ccccc3)cc2)C(=O)N[C@H](CCCCN)C(N)=O)NC1=O` [compound 205] (HELM PEPTIDE1{[meR].S.D.T.L.C.[Tic].[O=C([C@H](Cc1ccc(-c2ccccc2)cc1)N[*:1])[*:2]].[dK].[am]}|CHEM1{[O=C(c1ccccc1C[*:2])[*:1]]}$PEPTIDE1,CHEM1,1:R1-1:R1|PEPTIDE1,CHEM1,6:R3-1:R2$$$V2.0), the pIC50 in data set [2] is 6.00 to 7.00.

Consider `CC(C)C[C@@H]1NC(=O)[C@H]([C@@H](C)O)NC(=O)[C@H](CC(=O)O)NC(=O)[C@H](CO)NC(=O)[C@H](CCCNC(=N)N)N(C)C(=O)c2ccccc2CSC(C)(C)[C@@H](C(=O)N[C@@H](Cc2ccc3ccccc3c2)C(=O)N[C@@H](Cc2ccc(-c3ccccc3)cc2)C(=O)N[C@H](CCCCN)C(N)=O)NC1=O` [compound 206], for which the pIC50 in data set [2] was less than 6.00.

`COC(=O)CC[C@H](NC(=O)[C@H](Cc1c[nH]c2ccccc12)NC(=O)[C@H]1NC(=O)[C@H](CC(C)C)NC(=O)[C@H]([C@@H](C)O)NC(=O)[C@H](CC(=O)O)NC(=O)[C@H](CO)NC(=O)[C@H](CCCNC(=N)N)N(C)C(=O)c2ccccc2CSC1(C)C)C(=O)N[C@H](CCCCN)C(N)=O` [compound 210] (HELM PEPTIDE1{[meR].S.D.T.L.[Pen].W.E.[dK].[am]}|CHEM1{[CO[*:1]]}|CHEM2{[O=C(c1ccccc1C[*:2])[*:1]]}$PEPTIDE1,CHEM1,8:R3-1:R1|PEPTIDE1,CHEM2,1:R1-1:R1|PEPTIDE1,CHEM2,6:R3-1:R2$$$V2.0): the pIC50 in data set [2] was 6.00 to 7.00.

For `CC(C)C[C@@H]1NC(=O)[C@H]([C@@H](C)O)NC(=O)[C@H](CC(=O)O)NC(=O)[C@H](CO)NC(=O)[C@H](CCCNC(=N)N)N(C)C(=O)c2ccccc2CSC(C)(C)[C@@H](C(=O)N[C@@H](Cc2c[nH]c3ccccc23)C(=O)N[C@H](CCC(=O)O)C(=O)N[C@H](CCCCN)C(N)=O)NC1=O` [compound 212] (HELM PEPTIDE1{[meR].S.D.T.L.[Pen].W.[dE].[dK].[am]}|CHEM1{[O=C(c1ccccc1C[*:2])[*:1]]}$PEPTIDE1,CHEM1,1:R1-1:R1|PEPTIDE1,CHEM1,6:R3-1:R2$$$V2.0), the pIC50 in data set [2] is 7.00 to 7.60.
